Experimental findings from US4391828A, “Dibutylorthobenzylmethoxybenzenes and dibutylorthocinnamylmethoxybenzenes as mosquito larvae growth inhibitors” (The United States of America as represented by the …, priority 1982, dated 1983) are described below.

≈ marks a conversion by molar mass, not a printed value.

What all share (assay): Growth-inhibition test on mosquito larvae
The subject of experiment [1] is Anopheles quadrimaculatus. It is filed as in vivo, Anopheles quadrimaculatus (malaria mosquito). The settings on record: late third- and early fourth-stage larvae, 7 days, corrected by Abbott's formula; for LC50: 168 h, read-out: LC-50 (concentration that would prevent and/or retard the growth in 50% of the treated larvae). The procedure:
(§1) Twenty-five late third-and early fourth-stage mosquito larve were placed in a 500-ml glass jar (9X8.5 cm diam) containing 100 ml of well water, 0.05g ground hog supplement for larval food, and a known amount of the test compound in not more than 1.0ml acetone. The jars were covered with cloth netting and held in constant temperature incubators at 26.7°-28.9° C. and 65-75% relative humidity; a low level of illumination (ca. 0.5 foot candles inside the incubators) was maintained during nonworking hours. After seven days, the jars were examined for the number of dead pupae, the number of adults that were dead or unable to complete eclosion and the number of exuvia. […] Tests were replicated for at least one concentration and a control was set with each test series. Several concentrations of each compound were tested so that a dose-response relationship could be established.
(§2) The effectiveness of the compound in inhibiting growth was determined by adding the numbers of dead larvae and pupae and the numbers of adults that were dead, unable to complete eclosion, and malformed. This sum was corrected by Abbott's formula (to adjust for the number of larvae or pupae which would die naturally). The results are expressed as LC 50 or LC 90, i.e., the concentration of growth inhibitor in ppm that would prevent and/or retard the growth in 50% or 90%, respectively, of the treated larvae.

In the next experiment the test system is Aedes aegypti. It is filed as in vivo, Aedes aegypti (yellow fever mosquito). To be noted: late third- and early fourth-stage larvae, 7 days, corrected by Abbott's formula. The procedure:
as §1, §2

The subject of a further experiment is Aedes taeniorhynchos. It is filed as in vivo. The settings on record: late third- and early fourth-stage larvae, 7 days, corrected by Abbott's formula. The procedure: as §1, §2
Another experiment deals with Anopheles albimanus. It is filed as in vivo. The settings on record: late third- and early fourth-stage larvae, 7 days, corrected by Abbott's formula. The procedure: as §1, §2

Turning to `COc1ccc(Cc2cc(C(C)(C)C)cc(C(C)(C)C)c2O)cc1` [Compound B-I, 2,4-bis(1,1-dimethylethyl)-6-[(4-methoxyphenyl)methyl]phenol], in experiment [1], the LC50 came out at 0.12 µg/mL (≈ 0.368 µM) and the “LC-90 (concentration that would prevent and/or retard the growth in 90% of the treated larvae)” value amounted to 0.225 ppm.
For the compound `COc1ccc(Cc2cc(C(C)(C)C)cc(C(C)(C)C)c2OC)cc1` [Compound B, 2,4-Bis (1,1-dimethylethyl)-6-[(4-methoxyphenyl)methyl]-methoxybenzene], the LC-50 with Aedes aegypti is 0.005 ppm; with Aedes taeniorhynchos, 0.009 ppm; in the experiment with Anopheles albimanus, “.005 ppm”. For the same compound, the LC-90 came out at 0.099 ppm with Aedes aegypti, 0.023 ppm with Aedes taeniorhynchos and 0.009 ppm with Anopheles albimanus. In experiment [1], the “LC-90 (concentration that would prevent and/or retard the growth in 90% of the treated larvae)” value turned out to be 0.032 ppm.
Regarding `COc1c(CC=Cc2ccccc2)cc(C(C)(C)C)cc1C(C)(C)C` [C, 2,4-Bis(1,1-dimethylethyl)-6-(3-phenyl-2-propenyl)methoxybenzene], in experiment [1], the LC50 was found to be 0.026 µg/mL (≈ 0.0773 µM) and the “LC-90 (concentration that would prevent and/or retard the growth in 90% of the treated larvae)” value came out at 0.089 ppm.
The corresponding values for `CCOc1c(Cc2ccc(OC)cc2)cc(C(C)(C)C)cc1C(C)(C)C` [B-II] are 0.074 µg/mL (≈ 0.209 µM) and 0.285 ppm.
For `CCOc1c(C(C)c2ccccc2)cc(C(C)(C)C)cc1C(C)(C)C` (stereo not drawn) [A-II], the “LC-90 (concentration that would prevent and/or retard the growth in 90% of the treated larvae)” value in experiment [1] is more than 1.0 ppm.
On the same count and under the same terms, for `COc1c(C(C)c2ccccc2)cc(C(C)(C)C)cc1C(C)(C)C` (stereo not drawn) [A-III] the value was more than 1.0 ppm.
With `COc1ccc(C(C)c2cc(C(C)(C)C)cc(C(C)(C)C)c2OC)cc1` (stereo not drawn) [B-IV], in experiment [1], the LC50 stood at 0.242 µg/mL (≈ 0.683 µM) and the “LC-90 (concentration that would prevent and/or retard the growth in 90% of the treated larvae)” value turned out to be 0.556 ppm.
In the experiment with Aedes taeniorhynchos, `COc1c(Cc2ccccc2)cc(C(C)(C)C)cc1C(C)(C)C` [A, 2,4-Bis(1,1-dimethylethyl)-6-(phenylmethyl)methoxybenzene] registered an LC-50 of 0.026 ppm and an LC-90 of 0.164 ppm. Further, in the experiment on Anopheles albimanus, the LC-50 is given as 0.014 ppm and the LC-90 came out at 0.025 ppm. Further, in experiment [1], the LC50 was 0.065 µg/mL (≈ 0.209 µM) and the “LC-90 (concentration that would prevent and/or retard the growth in 90% of the treated larvae)” value is recorded as 0.092 ppm.
As for `CCOc1c(CC=Cc2ccccc2)cc(C(C)(C)C)cc1C(C)(C)C` [C-II], in experiment [1], the LC50 came out at 0.189 µg/mL (≈ 0.539 µM) and the “LC-90 (concentration that would prevent and/or retard the growth in 90% of the treated larvae)” value stood at 1.042 ppm.
The corresponding values for `CC(C)(C)c1cc(Cc2ccccc2)c(O)c(C(C)(C)C)c1` [A-I] are 0.2 µg/mL (≈ 0.675 µM) and 1.37 ppm.
The corresponding values for `CC(C)(C)c1cc(CC=Cc2ccccc2)c(O)c(C(C)(C)C)c1` [C-I] are 0.152 µg/mL (≈ 0.471 µM) and 0.399 ppm.
In the case of `CCOc1c(C(C)c2ccc(OC)cc2)cc(C(C)(C)C)cc1C(C)(C)C` (stereo not drawn) [B-V], the “LC-90 (concentration that would prevent and/or retard the growth in 90% of the treated larvae)” value in experiment [1] is recorded as more than 1.0 ppm.
